Laboratory results published in PubChem BioAssay AID1918952 (Molecular Pharmacology Branch, DTP, NCI, 2023).

Tested on: LG0703-F948-PDC complex spheroid viability
Assay: Anticancer human tumor LG0703-F948-PDC patient-derived lung adenocarcinoma cell line growth inhibition
Settings: for IC50: curve of first compound; for viability, T/C: stronger effect = lower value
How it was run: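 Drug combinations with the LSD1 inhibitor iadademstat tested on tumor cells co-cultured as spheroids with endothelial cells and mesenchymal stem cells. Concentrations descended in half-log increments from clinical Cmax or 10 microM.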

[1] = second compound 0.1 µM, first compound 0.00949 µM
[2] = second compound 0.1 µM, first compound 0.03 µM
[3] = second compound 0.1 µM, first compound 0.0949 µM
[4] = second compound 0.1 µM, first compound 0.3 µM
[5] = second compound 0.1 µM, first compound 0.949 µM
[6] = second compound 0.1 µM, first compound 3 µM
[7] = second compound 0.316 µM, first compound 0.00949 µM
[8] = second compound 0.316 µM, first compound 0.03 µM
[9] = second compound 0.316 µM, first compound 0.0949 µM
[10] = second compound 0.316 µM, first compound 0.3 µM
[11] = second compound 0.316 µM, first compound 0.949 µM
[12] = second compound 0.316 µM, first compound 3 µM
[13] = second compound 1 µM, first compound 0.00949 µM
[14] = second compound 1 µM, first compound 0.03 µM
[15] = second compound 1 µM, first compound 0.0949 µM
[16] = second compound 1 µM, first compound 0.3 µM
[17] = second compound 1 µM, first compound 0.949 µM
[18] = second compound 1 µM, first compound 3 µM
[19] = second compound 3.16 µM, first compound 0.00949 µM
[20] = second compound 3.16 µM, first compound 0.03 µM
[21] = second compound 3.16 µM, first compound 0.0949 µM
[22] = second compound 3.16 µM, first compound 0.3 µM
[23] = second compound 3.16 µM, first compound 0.949 µM
[24] = second compound 3.16 µM, first compound 3 µM
[25] = second compound 10 µM, first compound 0.00949 µM
[26] = second compound 10 µM, first compound 0.03 µM
[27] = second compound 10 µM, first compound 0.0949 µM
[28] = second compound 10 µM, first compound 0.3 µM
[29] = second compound 10 µM, first compound 0.949 µM
[30] = second compound 10 µM, first compound 3 µM
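Further: spheroids exposed to agents for seven days before readout.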
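Wherever viability, T/C is given: 100% = DMSO vehicle control wells as normalization base.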

## Nc1ccccc1NC(=O)c1ccc(CNC(=O)OCc2cccnc2)cc1 + NC1CCC(NC2CC2c2ccccc2)CC1
Second compound 0.1 µM
  IC50: 0.118 µM
Second compound 0.316 µM
  IC50: 0.142 µM
Second compound 1 µM
  IC50: 0.127 µM
Second compound 3.16 µM
  IC50: 0.141 µM
Second compound 10 µM
  IC50: 0.139 µM
[1]
  viability, T/C: 110%
[2]
  viability, T/C: 99.9%
[3]
  viability, T/C: 58.8%
[4]
  viability, T/C: 12.6%
[5]
  viability, T/C: 1.17%
[6]
  viability, T/C: 0.33%
[7]
  viability, T/C: 105%
[8]
  viability, T/C: 93.8%
[9]
  viability, T/C: 70.2%
[10]
  viability, T/C: 14.2%
[11]
  viability, T/C: 1.51%
[12]
  viability, T/C: 0.96%
[13]
  viability, T/C: 87.7%
[14]
  viability, T/C: 94.8%
[15]
  viability, T/C: 59.4%
[16]
  viability, T/C: 17%
[17]
  viability, T/C: 1.08%
[18]
  viability, T/C: 0.48%
[19]
  viability, T/C: 112%
[20]
  viability, T/C: 109%
[21]
  viability, T/C: 68.9%
[22]
  viability, T/C: 13.5%
[23]
  viability, T/C: 0.24%
[24]
  viability, T/C: 0.24%
[25]
  viability, T/C: 94.7%
[26]
  viability, T/C: 85.2%
[27]
  viability, T/C: 67.2%
[28]
  viability, T/C: 17%
[29]
  viability, T/C: 0.59%
[30]
  viability, T/C: 0.92%

## O=C(C=Cc1cccc(S(=O)(=O)Nc2ccccc2)c1)NO + NC1CCC(NC2CC2c2ccccc2)CC1
Second compound 0.1 µM
  IC50: 0.0782 µM
Second compound 0.316 µM
  IC50: 0.0835 µM
Second compound 1 µM
  IC50: 0.0832 µM
Second compound 3.16 µM
  IC50: 0.0778 µM
Second compound 10 µM
  IC50: 0.0576 µM
[1]
  viability, T/C: 103%
[2]
  viability, T/C: 88%
[3]
  viability, T/C: 41.8%
[4]
  viability, T/C: 10.5%
[5]
  viability, T/C: 1.71%
[6]
  viability, T/C: 0.44%
[7]
  viability, T/C: 114%
[8]
  viability, T/C: 93.5%
[9]
  viability, T/C: 44.5%
[10]
  viability, T/C: 10.6%
[11]
  viability, T/C: 1.43%
[12]
  viability, T/C: 0.17%
[13]
  viability, T/C: 126%
[14]
  viability, T/C: 89.5%
[15]
  viability, T/C: 48.5%
[16]
  viability, T/C: 9.18%
[17]
  viability, T/C: 1.34%
[18]
  viability, T/C: 0.11%
[19]
  viability, T/C: 102%
[20]
  viability, T/C: 86%
[21]
  viability, T/C: 42.9%
[22]
  viability, T/C: 8.17%
[23]
  viability, T/C: 0.32%
[24]
  viability, T/C: 0.12%
[25]
  viability, T/C: 114%
[26]
  viability, T/C: 77.3%
[27]
  viability, T/C: 29.8%
[28]
  viability, T/C: 4%
[29]
  viability, T/C: 0.21%
[30]
  viability, T/C: 0.19%

## O=C(c1cc(Cc2n[nH]c(=O)c3ccccc23)ccc1F)N1CCN(C(=O)C2CC2)CC1 + NC1CCC(NC2CC2c2ccccc2)CC1
Second compound 0.1 µM
  IC50: > 10 µM
Second compound 0.316 µM
  IC50: > 10 µM
Second compound 1 µM
  IC50: > 10 µM
Second compound 3.16 µM
  IC50: > 10 µM
Second compound 10 µM
  IC50: > 10 µM
Second compound 0.1 µM, first compound 0.0316 µM
  viability, T/C: 101%
Second compound 0.1 µM, first compound 0.1 µM
  viability, T/C: 100%
Second compound 0.1 µM, first compound 0.316 µM
  viability, T/C: 91.5%
Second compound 0.1 µM, first compound 1 µM
  viability, T/C: 99.4%
Second compound 0.1 µM, first compound 3.16 µM
  viability, T/C: 80.9%
Second compound 0.1 µM, first compound 10 µM
  viability, T/C: 76.8%
Second compound 0.316 µM, first compound 0.0316 µM
  viability, T/C: 112%
Second compound 0.316 µM, first compound 0.1 µM
  viability, T/C: 117%
Second compound 0.316 µM, first compound 0.316 µM
  viability, T/C: 106%
Second compound 0.316 µM, first compound 1 µM
  viability, T/C: 89.4%
Second compound 0.316 µM, first compound 3.16 µM
  viability, T/C: 94.3%
Second compound 0.316 µM, first compound 10 µM
  viability, T/C: 84%
Second compound 1 µM, first compound 0.0316 µM
  viability, T/C: 121%
Second compound 1 µM, first compound 0.1 µM
  viability, T/C: 125%
Second compound 1 µM, first compound 0.316 µM
  viability, T/C: 123%
Second compound 1 µM, first compound 1 µM
  viability, T/C: 130%
Second compound 1 µM, first compound 3.16 µM
  viability, T/C: 95.3%
Second compound 1 µM, first compound 10 µM
  viability, T/C: 98.2%
Second compound 3.16 µM, first compound 0.0316 µM
  viability, T/C: 116%
Second compound 3.16 µM, first compound 0.1 µM
  viability, T/C: 110%
Second compound 3.16 µM, first compound 0.316 µM
  viability, T/C: 113%
Second compound 3.16 µM, first compound 1 µM
  viability, T/C: 107%
Second compound 3.16 µM, first compound 3.16 µM
  viability, T/C: 112%
Second compound 3.16 µM, first compound 10 µM
  viability, T/C: 106%
Second compound 10 µM, first compound 0.0316 µM
  viability, T/C: 109%
Second compound 10 µM, first compound 0.1 µM
  viability, T/C: 106%
Second compound 10 µM, first compound 0.316 µM
  viability, T/C: 103%
Second compound 10 µM, first compound 1 µM
  viability, T/C: 109%
Second compound 10 µM, first compound 3.16 µM
  viability, T/C: 94%
Second compound 10 µM, first compound 10 µM
  viability, T/C: 84%
